Blank lines part the entries; values can stand above or below the compound they belong to.
Assays:
Protein phosphatase 1D = biological target: T1, Protein phosphatase 1D (Homo sapiens, UniProt O15297); experiment: Inhibition of human Wip1 (2 to 420 residues) expressed in baculovirus-infected insect SF9 cells assessed as fluorescein diphosphate hydrolysis after 5 mins by fluorescence assay
T1 sequence (O15297 whole entry): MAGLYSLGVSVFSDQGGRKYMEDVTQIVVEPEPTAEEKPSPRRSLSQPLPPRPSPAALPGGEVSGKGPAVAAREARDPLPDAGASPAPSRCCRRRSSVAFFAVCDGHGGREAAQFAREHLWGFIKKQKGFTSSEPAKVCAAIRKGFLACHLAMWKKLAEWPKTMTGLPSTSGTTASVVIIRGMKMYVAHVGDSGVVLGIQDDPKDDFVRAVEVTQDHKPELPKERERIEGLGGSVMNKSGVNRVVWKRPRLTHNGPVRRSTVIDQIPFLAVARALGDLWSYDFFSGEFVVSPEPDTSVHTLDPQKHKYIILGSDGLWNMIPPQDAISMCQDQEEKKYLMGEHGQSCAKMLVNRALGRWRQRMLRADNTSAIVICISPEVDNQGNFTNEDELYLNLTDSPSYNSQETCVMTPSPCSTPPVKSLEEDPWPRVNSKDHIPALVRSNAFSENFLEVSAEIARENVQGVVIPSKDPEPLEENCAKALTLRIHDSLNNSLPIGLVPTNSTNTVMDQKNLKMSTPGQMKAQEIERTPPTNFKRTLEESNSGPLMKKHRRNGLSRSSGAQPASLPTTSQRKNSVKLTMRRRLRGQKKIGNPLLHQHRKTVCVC

[1] = biological target: T2, 2',5'-phosphodiesterase 12 (Homo sapiens, UniProt Q6L8Q7); experiment: Inhibition of human PDE12 (17 to 609 residues) expresssed in Escherichia coli BL21(DE3) cells using 2-5A as substrate assessed as AMP monomers and ATP formation after 30 mins by AMP-Glo assay
T2 sequence (Q6L8Q7 whole entry): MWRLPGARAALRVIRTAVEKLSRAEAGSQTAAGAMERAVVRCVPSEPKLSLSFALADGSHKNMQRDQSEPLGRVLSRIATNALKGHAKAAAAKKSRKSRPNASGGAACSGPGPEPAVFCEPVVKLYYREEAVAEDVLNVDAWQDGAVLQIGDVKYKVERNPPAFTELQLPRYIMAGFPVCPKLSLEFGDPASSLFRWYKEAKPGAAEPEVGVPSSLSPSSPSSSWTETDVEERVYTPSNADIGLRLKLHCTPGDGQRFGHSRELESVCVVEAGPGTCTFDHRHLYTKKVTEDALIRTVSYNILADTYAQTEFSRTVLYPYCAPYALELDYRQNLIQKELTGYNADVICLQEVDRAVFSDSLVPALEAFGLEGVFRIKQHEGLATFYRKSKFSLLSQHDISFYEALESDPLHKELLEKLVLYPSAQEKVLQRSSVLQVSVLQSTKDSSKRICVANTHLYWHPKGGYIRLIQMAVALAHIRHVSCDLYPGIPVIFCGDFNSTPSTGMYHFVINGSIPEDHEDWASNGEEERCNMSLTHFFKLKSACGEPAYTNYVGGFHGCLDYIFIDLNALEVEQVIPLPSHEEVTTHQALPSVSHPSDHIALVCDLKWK

[2] = biological target: Proto-oncogene tyrosine-protein kinase Src (Gallus gallus, UniProt P00523); experiment: Inhibition of chicken Src kinase domain using AEEEIYGEFAKKK as substrate by continuous spectrophotometric assay
[3] = Binding affinity to HSP70 (unknown origin) by surface plasmon resonance method; set-up: species or system Homo sapiens
[4] = Displacement of [3H]-3-(1-(3-chloro-6-isopropyl-8-(trifluoromethyl)imidazo[1,2-a]pyridine-2-carbonyl)piperidin-4-yl)oxazolidin-2-one from HCV genotype 1b C-terminal His6-tagged NS4B (1 to 261 residues) expressed in baculovirus infected insect SF9 cells; set-up: species or system Hepatitis C virus subtype 1b
MAP kinase p38 = MAP kinase p38 (Homo sapiens, UniProt O15264+Q15759+Q16539+P53778); experiment: Inhibition of p38 MAPK (unknown origin); type: protein assay
[5] = Binding affinity to human plasma AGP by isothermal titration calorimetry; type: ADME
Interleukin-2 = Interleukin-2 (Homo sapiens, UniProt P60568); experiment: Binding affinity to human IL-2 measured over 30 mins by fluorescence polarization assay
Chain of Interleukin-2 (P60568 whole entry): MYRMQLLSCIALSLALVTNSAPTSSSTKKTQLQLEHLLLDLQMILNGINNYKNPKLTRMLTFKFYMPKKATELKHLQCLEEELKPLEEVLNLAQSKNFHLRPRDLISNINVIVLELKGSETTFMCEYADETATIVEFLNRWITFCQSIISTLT

Structure (SMILES): CCn1cc(-c2nc3cc(Br)c(C(=O)N4CCO[C@@H](c5ccc(F)cc5)[C@@H]4CO)cc3n2C)c2ccc(C#N)cc21
- IC50 [1]: 0.8 nM

Structure (SMILES): NC(=O)C(CNC(=O)c1ccc2[nH]nc(Br)c2c1)NC(=O)c1cccc(NC(=O)CCC(=O)c2ccc(-c3ccccc3)cc2)c1 (stereo not drawn)
- Kd [3]: 0.64 nM

Structure (SMILES): O=C(c1ccc2[nH]ccc2c1)N1CCC2(CCCN(c3ncc(-c4ccccc4)c(-c4ccc(Cl)cc4)n3)C2)CC1
- IC50 [4]: 42 nM

Structure (SMILES): Cc1ccc(S(=O)(=O)N(CC(=O)NCCOCCC(=O)NCCOCCC(=O)N[C@@H](CCCCNC(=O)/C=C/c2ccc(-c3ccccc3C(F)(F)F)o2)C(=O)O)c2ccccc2-c2ccccc2)cc1
- Kd [5]: 5800 nM

The next lines start with the values.

- IC50 (Protein phosphatase 1D): 6 nM
Structure (SMILES): Cc1ncc(Cl)cc1NCc1ccc(C(=O)N[C@@H](CC2CCCC2)C(=O)NC2CC2)s1

- IC50 [2]: 4 nM
Structure (SMILES): O=C1/C=C\C(=O)N[C@@H](CC2CCCCC2)C(=O)N[C@@H](Cc2ccccc2)C(=O)N[C@@H](CCCNC(=O)c2cnccn2)C(=O)NCC[C@@H](C(=O)O)N1

- IC50 (MAP kinase p38): 7 nM
Structure (SMILES): CNC(=O)C(Cc1ccc2c(c1)COC(C)(C)O2)Nc1nc(O)nc(-n2ccc3ccc(C(=O)N4CCCc5ccccc54)cc32)n1 (stereo not drawn)

- Kd (Interleukin-2): 4200 nM
Structure (SMILES): CCCC#Cc1ccc(C[C@@H](NC(=O)CCn2c(C)cc3ccccc32)C(=O)O)cc1
